From patent publication US11459315B2, “Modulators of methyl modifying enzymes, compositions and uses thereof” (Constellation Pharmaceuticals, Inc., priority 2017, dated 2022)
Read-outs that look alike come from different tables or passages of the source.

Experiments:
[1] = target: PRC2 containing wt EZH2 (Homo sapiens (Human), UniProt Q15910); test: EZH2 biochemical assay (IC50), 3H-SAM incorporation into biotinylated H3 peptide; settings: 30 pM PRC2 containing wt EZH2, 3-5 h pre-incubation
Outline: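 The PRC2 pentamer with wt EZH2 (30 pM) was pre-incubated for 3-5 h with 450 nM SAM plus 450 nM ³H-SAM, 2 µM H3K27me3 activating peptide and compound (0.8% DMSO) in Tris at pH 8.5. Biotinylated H3K27me1 peptide was added and the reaction ran 18-22 h at RT. Incorporated ³H was captured on streptavidin plates, and IC50 was taken from a four-parameter fit.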

[2] = tested on: H3K27me3 mark in HeLa cells (EZH2); test: H3K27me3 Alpha Hela Assay (AlphaLISA); format: cell-based; settings: Homo sapiens, HeLa, 72 h, HeLa cells, 72 hrs; read-out: EZH2 Cell H3K27me3 Alpha HeLa (EC50 K27me3)
Outline: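 HeLa cells (1,000/well) treated with ten 3-fold compound doses for 72 h at 37 °C; lysates extracted and H3K27me3 detected by AlphaLISA with anti-K27me3 acceptor beads, biotinylated anti-H3 (3 nM) and streptavidin donor beads. EC50 from DMSO-normalized dose-response curves; duplicate plate assessed viability.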

PRC2 containing wt EZH2, sequence (Q15910 whole entry): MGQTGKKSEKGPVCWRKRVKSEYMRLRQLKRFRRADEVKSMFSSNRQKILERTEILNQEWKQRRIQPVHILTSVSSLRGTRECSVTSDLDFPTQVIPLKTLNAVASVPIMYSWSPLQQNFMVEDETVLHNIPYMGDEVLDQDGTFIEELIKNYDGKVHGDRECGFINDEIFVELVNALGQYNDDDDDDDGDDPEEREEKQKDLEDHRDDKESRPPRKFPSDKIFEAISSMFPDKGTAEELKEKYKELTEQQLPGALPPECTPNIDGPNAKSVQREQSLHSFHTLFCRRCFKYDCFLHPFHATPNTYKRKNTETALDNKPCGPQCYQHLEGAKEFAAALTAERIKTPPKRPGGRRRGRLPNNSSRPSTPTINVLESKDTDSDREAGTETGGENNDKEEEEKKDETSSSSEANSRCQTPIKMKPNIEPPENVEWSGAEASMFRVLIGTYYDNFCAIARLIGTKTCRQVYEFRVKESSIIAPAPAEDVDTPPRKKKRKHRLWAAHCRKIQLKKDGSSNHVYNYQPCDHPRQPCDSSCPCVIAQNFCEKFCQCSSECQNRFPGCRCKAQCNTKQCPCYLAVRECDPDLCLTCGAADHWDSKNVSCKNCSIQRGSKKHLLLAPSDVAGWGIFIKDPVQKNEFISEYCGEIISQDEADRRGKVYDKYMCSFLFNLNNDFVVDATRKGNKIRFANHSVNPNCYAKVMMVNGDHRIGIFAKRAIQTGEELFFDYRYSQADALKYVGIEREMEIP
PRC2 containing wt EZH2, sequence (O75530 whole entry partner): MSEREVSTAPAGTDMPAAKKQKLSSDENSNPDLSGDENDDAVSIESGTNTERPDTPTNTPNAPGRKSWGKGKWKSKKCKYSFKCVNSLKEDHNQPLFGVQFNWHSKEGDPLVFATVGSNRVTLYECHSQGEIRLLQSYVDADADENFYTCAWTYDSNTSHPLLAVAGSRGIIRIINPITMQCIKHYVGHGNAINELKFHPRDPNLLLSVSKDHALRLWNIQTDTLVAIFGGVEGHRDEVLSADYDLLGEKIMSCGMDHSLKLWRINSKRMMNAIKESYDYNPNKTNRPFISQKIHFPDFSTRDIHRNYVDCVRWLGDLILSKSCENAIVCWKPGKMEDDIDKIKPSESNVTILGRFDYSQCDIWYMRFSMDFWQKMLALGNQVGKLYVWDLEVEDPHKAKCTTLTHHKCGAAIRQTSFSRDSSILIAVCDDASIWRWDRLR
PRC2 containing wt EZH2, sequence (Q15022 whole entry partner): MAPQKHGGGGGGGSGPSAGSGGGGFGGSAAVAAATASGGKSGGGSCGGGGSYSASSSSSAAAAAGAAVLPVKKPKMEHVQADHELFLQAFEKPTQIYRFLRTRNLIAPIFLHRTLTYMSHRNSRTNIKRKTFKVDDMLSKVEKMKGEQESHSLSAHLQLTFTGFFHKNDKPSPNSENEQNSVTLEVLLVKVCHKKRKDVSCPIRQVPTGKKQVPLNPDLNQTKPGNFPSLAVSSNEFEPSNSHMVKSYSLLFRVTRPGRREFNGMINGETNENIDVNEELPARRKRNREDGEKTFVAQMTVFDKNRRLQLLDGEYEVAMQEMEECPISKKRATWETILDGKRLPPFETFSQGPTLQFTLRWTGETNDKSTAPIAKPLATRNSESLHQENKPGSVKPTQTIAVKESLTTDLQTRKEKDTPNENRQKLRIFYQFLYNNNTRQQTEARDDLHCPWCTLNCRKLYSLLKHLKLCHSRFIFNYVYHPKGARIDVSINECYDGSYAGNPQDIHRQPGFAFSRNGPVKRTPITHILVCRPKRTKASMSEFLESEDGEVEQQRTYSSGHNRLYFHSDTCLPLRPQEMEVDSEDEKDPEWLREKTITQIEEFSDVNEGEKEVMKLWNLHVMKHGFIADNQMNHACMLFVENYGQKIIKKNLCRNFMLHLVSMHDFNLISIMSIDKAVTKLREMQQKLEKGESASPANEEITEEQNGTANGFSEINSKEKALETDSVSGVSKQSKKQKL
PRC2 containing wt EZH2, sequence (Q09028 whole entry partner): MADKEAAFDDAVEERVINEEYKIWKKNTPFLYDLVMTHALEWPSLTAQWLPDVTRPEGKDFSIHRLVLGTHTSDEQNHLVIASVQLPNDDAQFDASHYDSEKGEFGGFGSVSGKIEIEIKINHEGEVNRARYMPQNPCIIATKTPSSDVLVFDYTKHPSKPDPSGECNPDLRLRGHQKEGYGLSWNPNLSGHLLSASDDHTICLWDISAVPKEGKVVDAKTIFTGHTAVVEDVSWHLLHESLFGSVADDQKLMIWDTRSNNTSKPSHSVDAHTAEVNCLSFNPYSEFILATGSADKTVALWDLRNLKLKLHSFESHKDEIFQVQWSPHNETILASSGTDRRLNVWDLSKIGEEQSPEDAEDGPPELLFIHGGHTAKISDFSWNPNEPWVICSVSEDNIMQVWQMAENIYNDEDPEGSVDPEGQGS
PRC2 containing wt EZH2, sequence (Q6ZN18 whole entry partner): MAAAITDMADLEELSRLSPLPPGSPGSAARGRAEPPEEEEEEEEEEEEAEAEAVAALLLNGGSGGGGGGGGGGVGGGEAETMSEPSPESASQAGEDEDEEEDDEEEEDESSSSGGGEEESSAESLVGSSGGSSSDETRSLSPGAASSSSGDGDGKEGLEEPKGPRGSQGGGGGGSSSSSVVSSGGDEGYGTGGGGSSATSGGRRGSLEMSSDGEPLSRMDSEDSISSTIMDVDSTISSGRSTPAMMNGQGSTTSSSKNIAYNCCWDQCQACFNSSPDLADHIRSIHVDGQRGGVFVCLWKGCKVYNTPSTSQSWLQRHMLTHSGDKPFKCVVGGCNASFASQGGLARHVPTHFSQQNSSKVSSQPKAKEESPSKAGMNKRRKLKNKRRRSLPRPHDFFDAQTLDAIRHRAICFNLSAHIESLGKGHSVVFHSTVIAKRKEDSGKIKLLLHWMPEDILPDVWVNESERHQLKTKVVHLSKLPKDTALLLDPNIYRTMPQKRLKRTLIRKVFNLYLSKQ

Row | Compound | IC50 ([1]; EZH2 (IC50)) [nM] | EC50 [2] [nM] | IC50 ([1]; read-out: EZH2 (IC50)) [nM]
1 | CSc1cc(C)[nH]c(=O)c1CNC(=O)c1c(C)n([C@H](C)C2CCC(F)(F)CC2)c2ccccc12 [Example 45, (R)-1-(1-(4,4-difluorocyclohexyl)ethyl)-2-methyl-N-((6-methyl-4-(methylthio)-2-oxo-1,2-dihydropyridin-3-yl)methyl)-1H-indole-3-carboxamide] | < 0.5 | < 10 | –
2 | CSc1cc(C)[nH]c(=O)c1CNC(=O)c1c(C)n([C@H](C)c2ccc(N(C)C)cc2)c2ccccc12 [Example 46, (R)-1-(1-(4-(dimethylamino)phenyl)ethyl)-2-methyl-N-((6-methyl-4-(methylthio)-2-oxo-1,2-dihydropyridin-3-yl)methyl)-1H-indole-3-carboxamide] | < 0.5 | 10 to 100 | –
3 | CSc1cc(C)[nH]c(=O)c1CNC(=O)c1c(C)n([C@@H](C)c2ccc(N(C)C)cc2)c2ccccc12 [Example 47, (S)-1-(1-(4-(dimethylamino)phenyl)ethyl)-2-methyl-N-((6-methyl-4-(methylthio)-2-oxo-1,2-dihydropyridin-3-yl)methyl)-1H-indole-3-carboxamide] | 0.5 to 5 | > 100 | –
4 | CSc1cc(C)[nH]c(=O)c1CNC(=O)c1c(C)n([C@H](C)C2CCN(C3CC3)CC2)c2ccccc12 [Example 48, (R)-1-(1-(1-cyclopropylpiperidin-4-yl)ethyl)-2-methyl-N-((6-methyl-4-(methylthio)-2-oxo-1,2-dihydropyridin-3-yl)methyl)-1H-indole-3-carboxamide] | < 0.5 | < 10 | –
5 | CSc1cc(C)[nH]c(=O)c1CNC(=O)c1c(C)n([C@H](C)C2CC(NC3COC3)C2)c2ccccc12 (stereo partly drawn) [Example 49, 2-methyl-N-((6-methyl-4-(methylthio)-2-oxo-1,2-dihydropyridin-3-yl)methyl)-1-((R)-1-(3-(oxetan-3-ylamino)cyclobutyl)ethyl)-1H-indole-3-carboxamide] | – | > 100 | 0.5 to 5
6 | CSc1cc(C)[nH]c(=O)c1CNC(=O)c1c(C)n([C@H](C)C2CCN(C3CC3)CC2)c2ncncc12 [Example 50, (R)-7-(1-(1-cyclopropylpiperidin-4-yl)ethyl)-6-methyl-N-((6-methyl-4-(methylthio)-2-oxo-1,2-dihydropyridin-3-yl)methyl)-7H-pyrrolo[2,3-d]pyrimidine-5-carboxamide] | < 0.5 | < 10 | –
7 | CSc1cc(C)[nH]c(=O)c1CNC(=O)c1c(C)n([C@H](C)C2CCN(CCO)CC2)c2ccccc12 [Example 52, (R)-1-(1-(1-(2-hydroxyethyl)piperidin-4-yl)ethyl)-2-methyl-N-((6-methyl-4-(methylthio)-2-oxo-1,2-dihydropyridin-3-yl)methyl)-1H-indole-3-carboxamide] | < 0.5 | > 100 | –
8 | CSc1cc(C)[nH]c(=O)c1CNC(=O)c1c(C)n([C@H](C)C2CN(CC(F)(F)F)C2)c2ccccc12 [Example 54, (R)-2-methyl-N-((6-methyl-4-(methylthio)-2-oxo-1,2-dihydropyridin-3-yl)methyl)-1-(1-(1-(2,2,2-trifluoroethyl)azetidin-3-yl)ethyl)-1H-indole-3-carboxamide] | 0.5 to 5 | 10 to 100 | –
9 | CSc1cc(C)[nH]c(=O)c1CNC(=O)c1c(C)n([C@@H](C)C2CN(CC(F)(F)F)C2)c2ccccc12 [Example 55, (S)-2-methyl-N-((6-methyl-4-(methylthio)-2-oxo-1,2-dihydropyridin-3-yl)methyl)-1-(1-(1-(2,2,2-trifluoroethyl)azetidin-3-yl)ethyl)-1H-indole-3-carboxamide] | 0.5 to 5 | 10 to 100 | –
10 | CSc1cc(C)[nH]c(=O)c1CNC(=O)c1c(C)n([C@H](C)[C@H]2CCN(C3CC3)C[C@H]2F)c2ccccc12 [Example 56, 1-((R)-1-((3S,4R)-1-cyclopropyl-3-fluoropiperidin-4-yl)ethyl)-2-methyl-N-((6-methyl-4-(methylthio)-2-oxo-1,2-dihydropyridin-3-yl)methyl)-1H-indole-3-carboxamide] | < 0.5 | < 10 | –
11 | CSc1cc(C)[nH]c(=O)c1CNC(=O)c1c(C)n([C@H](C)C2CCN(C3CC3)CC2)c2cc(F)ccc12 [Example 57, (R)-1-(1-(1-cyclopropylpiperidin-4-yl)ethyl)-6-fluoro-2-methyl-N-((6-methyl-4-(methylthio)-2-oxo-1,2-dihydropyridin-3-yl)methyl)-1H-indole-3-carboxamide] | < 0.5 | < 10 | –
12 | CSc1cc(C)[nH]c(=O)c1CNC(=O)c1c(C)n([C@H](C)C2CCN(C3CC3)CC2)c2ncc(F)cc12 [Example 58, (R)-1-(1-(1-cyclopropylpiperidin-4-yl)ethyl)-5-fluoro-2-methyl-N-((6-methyl-4-(methylthio)-2-oxo-1,2-dihydropyridin-3-yl)methyl)-1H-pyrrolo[2,3-b]pyridine-3-carboxamide] | < 0.5 | < 10 | –
13 | CSc1cc(C)[nH]c(=O)c1CNC(=O)c1c(C)n([C@H](C)C2CCN(CC(F)F)CC2)c2ncccc12 [Example 59, (R)-1-(1-(1-(2,2-difluoroethyl)piperidin-4-yl)ethyl)-2-methyl-N-((6-methyl-4-(methylthio)-2-oxo-1,2-dihydropyridin-3-yl)methyl)-1H-pyrrolo[2,3-b]pyridine-3-carboxamide] | < 0.5 | < 10 | –
14 | CSc1cc(C)[nH]c(=O)c1CNC(=O)c1c(C)n([C@H](C)C2CCC(NC(C)(C)C)CC2)c2ccccc12 (stereo partly drawn) [Example 61, (R)-1-(1-(4-(tert-butylamino)cyclohexyl)ethyl)-2-methyl-N-((6-methyl-4-(methylthio)-2-oxo-1,2-dihydropyridin-3-yl)methyl)-1H-indole-3-carboxamide] | – | 10 to 100 | < 0.5
15 | CSc1cc(C)[nH]c(=O)c1CNC(=O)c1c(C)n([C@H](C)C2CCC(NC3COC3)CC2)c2ncncc12 (stereo partly drawn) [Example 63, 6-methyl-N-((6-methyl-4-(methylthio)-2-oxo-1,2-dihydropyridin-3-yl)methyl)-7-((R)-1-(4-(oxetan-3-ylamino)cyclohexyl)ethyl)-7H-pyrrolo[2,3-d]pyrimidine-5-carboxamide] | – | 10 to 100 | < 0.5
16 | CSc1cc(C)[nH]c(=O)c1CNC(=O)c1c(C)n([C@H](C)C2CCC(N3CC(F)C3)CC2)c2ncccc12 (stereo partly drawn) [Example 65, 1-((R)-1-(4-(3-fluoroazetidin-1-yl)cyclohexyl)ethyl)-2-methyl-N-((6-methyl-4-(methylthio)-2-oxo-1,2-dihydropyridin-3-yl)methyl)-1H-pyrrolo[2,3-b]pyridine-3-carboxamide] | < 0.5 | < 10 | –
17 | CSc1cc(C)[nH]c(=O)c1CNC(=O)c1c(C)n([C@H](C)C2CCN(C3CC(F)C3)CC2)c2ncccc12 (stereo partly drawn) [Example 66, (R)-1-(1-(1-(3-fluorocyclobutyl)piperidin-4-yl)ethyl)-2-methyl-N-((6-methyl-4-(methylthio)-2-oxo-1,2-dihydropyridin-3-yl)methyl)-1H-pyrrolo[2,3-b]pyridine-3-carboxamide] | < 0.5 | 10 to 100 | –
18 | CSc1cc(C)[nH]c(=O)c1CNC(=O)c1c(C)n([C@H](C)C2CCC(N3CC(F)C3)CC2)c2ncncc12 (stereo partly drawn) [Example 68, 7-((R)-1-(4-(3-fluoroazetidin-1-yl)cyclohexyl)ethyl)-6-methyl-N-((6-methyl-4-(methylthio)-2-oxo-1,2-dihydropyridin-3-yl)methyl)-7H-pyrrolo[2,3-d]pyrimidine-5-carboxamide] | < 0.5 | < 10 | –
